Results published in US9630896B2, “2,5-dialkyl-4-H/halo/ether-phenol compounds” (Tansna Therapeutics Inc, priority 2013, dated 2017).

Experiments:
[1] = system: 6 Hz 44 mA Epilepsy Model (electrically induced psychomotor seizure); experiment: Minimal clonic seizure (6 Hz, 44 mA) test; type: in vivo; details: Mouse, IP, 100 mg/kg
Text: (§1) 1. Minimal Clonic Seizure (6 Hz, 32 mA or 44 mA) Test
(§2) Test compounds are pre-administered to mice via i.p. injection. At varying times, individual mice (four per time point) are challenged with sufficient current delivered through corneal electrodes to elicit a psychomotor seizure in 97% of animals (32 mA or 44 mA for 3 s) (Toman J E P, Everett G M, Richards R K: The Search for New Drugs against Epilepsy. Texas Reports on Biology and Medicine 1952; 10:96-104). Untreated mice will display seizures characterized by a minimal clonic phase followed by stereotyped, automatistic behaviors described originally as being similar to the aura of human patients with partial seizures. Animals not displaying this behavior are considered protected. The test compounds are evaluated quantitatively by measuring the responses at varying doses at a determined time of peak effect (TPE).

[2] = system: MES Model (maximal electroshock seizure); experiment: Maximal electroshock seizure (MES) test; type: in vivo; details: Mouse, IP
Procedure: 3. Maximal Electroshock Seizure (MES) Test
MES test is performed as in the Minimal Clonic Seizure (6 Hz) test, but the MES test utilizes a current of 50 mA (mice) or 150 mA (rats), frequency of 50-60 Hz, and a stimulation time of 0.2 seconds. Upon stimulation, untreated test subjects display immediate severe tonic seizure (including maximal extension of legs) and the body becomes stiffened for roughly 10-15 seconds. Next, clonic seizures start (including shaking of body and paddling movements of the hind limbs) and may last 20-30 seconds (Castel-Branco M M, Alves G L, Figueiredo I V, Falcao A C, Caramona M M: The Maximal Electroshock Seizure (MES) Model in the Preclinical Assessment of Potential New Antiepileptic Drugs. Methods and Findings in Experimental and Clinical Pharmacology 2009; 31:101-06). Test subjects that display reduced or eliminated symptoms of MES-type seizures during and/or after stimulation are considered protected.

[3] = system: minimal muscular or neurological impairment (rotorod); experiment: Acute toxicity - minimal motor impairment (rotorod); type: in vivo; details: for Toxicity Ratio: Mouse
Text: 4. Acute Toxicity-Minimal Motor Impairment
To assess a compound's undesirable side effects (toxicity), animals are monitored for overt signs of impaired neurological or muscular function. In mice, the rotorod (Dunham N W, Miya T S: A Note on a Simple Apparatus for Detecting Neurological Deficit in Rats and Mice. Journal of the American Pharmaceutical Association 1957; 46:208-09), procedure is used to disclose minimal muscular or neurological impairment. When a mouse is placed on a rod that rotates at a speed of 6 rpm, the animal can maintain its equilibrium for long periods of time. The animal is considered toxic if it falls off this rotating rod three times during a 1-min period. In rats, minimal motor deficit is indicated by ataxia, which is manifested by an abnormal, uncoordinated gait. Rats used for evaluating toxicity are examined before the test drug is administered, since individual animals may have peculiarities in gait, equilibrium, placing response, etc., which might be attributed erroneously to the test substance.

[4] = system: Corneal Kindled Mouse (Stage 5 seizures); experiment: Corneal kindled mouse (focal seizures) - Test 26; type: in vivo; details: IP, TPE 0.5 hrs
Text: 2. Corneal Kindling (Focal Seizures)
Mice are kindled electrically with 3 sec stimulation, 8 mA, 60 Hz, and corneal electrodes to a criterion of 10 consecutive Stage 5 seizures (facial clonus and head nodding progressing to forelimb clonus, and finally rearing and falling accompanied by a generalized clonic seizure as described by Racine (Racine R J: Modification of Seizure Activity by Electrical Stimulation. II. Motor Seizure. Electroen Clin Neuro 1972; 32:281-94). Stage 5 is generally reached after twice daily stimulation for 8 days. With continued stimulation once a day, animals usually progress to a reproducible Stage 5 after 10-14 additional days. At least 72 hours after the mice have been kindled, the test substance is administered either intraperitoneal (i.p.) or per os (p.o.) and, at the previously determined TPE, each animal is given the electrical stimulus indicated above. Following stimulation, the animals are observed for the presence or absence of the rearing and falling criteria of a Stage 5 seizure. Treated animals not displaying a Stage 3, 4, or 5 seizure are considered protected. The dose of the test substance is varied between the limits of 0 and 100% efficacy, and the ED50 and 95% confidence intervals calculated by probit analysis. Mean values and the S.E.M. are calculated for the length of clonus and seizure duration and p values are determined by the Student's t-test.

[5] = system: 6 Hz 32 mA Epilepsy Model (electrically induced psychomotor seizure); experiment: Minimal clonic seizure (6 Hz, 32 mA) test; type: in vivo, Mouse; details: for animals protected/animals tested: 6 Hz 32 mA, Mouse, IP; for ED50: Mus musculus, ip, 6 Hz 32 mA dose response (Test 7-2), mice
Text: as §1, §2

[6] = system: 6 Hz 32 mA Epilepsy Model (electrically induced psychomotor seizure); experiment: Minimal clonic seizure (6 Hz, 32 mA) test; type: in vivo; details: Mouse, Oral, 100 mg/kg, TPE N/A
[7] = Test 7-1 table, IP, 100 mg/kg, TPT N/A
[8] = Test 7-3 table, IP, 100 mg/kg, TPT N/A
[9] = MES screen table, IP, 100 mg/kg, TPT N/A
[10] = Test 7-1 table, IP, 30 mg/kg, TPT NA
[11] = Test 7-1 table, IP, 300 mg/kg, TPT 0.5 hrs

Row | SMILES | Toxicity Ratio [3, 7] | Toxicity Ratio [3, 8] | animals protected/animals tested ([5]; 100 mg/kg, TPE 0.5 hrs) | ED50 ([5]; TPE 0.5 hrs) | animals protected/animals tested ([2]; 100 mg/kg, TPE 0.25 hrs) | Toxicity Ratio [3, 9] | Toxicity Ratio [3, 10] | Toxicity Ratio [3, 11] | animals protected/animals tested ([5]; 30 mg/kg, TPE 0.5 hrs) | animals protected/animals tested ([2]; 100 mg/kg, TPE 0.5 hrs) | animals protected/animals tested ([2]; 300 mg/kg, TPE 0.5 hrs) | animals protected/animals tested ([5]; 300 mg/kg, TPE 0.5 hrs) | further results
1 | Cc1cc(O)c(C(C)C)cc1Br [Ex. 132, 4-Bromo-2-isopropyl-5-methyl-phenol] | 0/4 | 0/4 | 3/4 | 28 mg/kg |  |  |  |  |  |  |  |  | animals protected/animals tested ([1]; TPE 2 hrs): 2/4; animals protected/animals tested ([2]; 100 mg/kg, TPE 1 hrs): 2/4; Toxicity Ratio ([3]; MES screen table, IP, 100 mg/kg, TPT 0.5 hrs): 1/8; TD50 at 4 hrs ([3]; mouse, in vivo, intraperitoneal, Test 7-2 table, TPT 4 hrs): > 200 mg/kg; Average Seizure Score ([4]; 28 mg/kg): 4.5; Seizure Ratio ([4]; 28 mg/kg): 1/4
2 | CC(C)c1cc(O)c(C(C)(C)C)cc1Br [Ex. 204, 4-Bromo-2-tert-butyl-5-isopropyl-phenol] | 0/4 |  | 2/4 |  | 1/4 | 0/8 |  |  |  |  |  |  | 
3 | Cc1cc(Br)c(C(C)(C)C)cc1O [Ex. 25, 4-Bromo-5-tert-butyl-2-methyl-phenol] | 0/8 |  | 2/4 |  |  |  | 0/8 | 4/8 | 2/4 |  |  |  | animals protected/animals tested ([5]; 300 mg/kg, TPE 2 hrs): 4/4
4 | CCc1cc(Br)c(C(C)C)cc1O [Ex. 64, 4-Bromo-2-ethyl-5-isopropyl-phenol] | 0/8 | 0/4 | 3/4 |  |  | 0/8 | 0/8 | 6/8 | 1/4 | 1/4 | 2/4 | 4/4 | animals protected/animals tested ([1]; TPE 0.25 hrs): 1/4; animals protected/animals tested ([2]; 30 mg/kg, TPE NA): 0/4; Toxicity Ratio ([3]; MES screen table, IP, 30 mg/kg, TPT NA): 0/8; Toxicity Ratio ([3]; MES screen table, IP, 300 mg/kg, TPT 0.5 hrs): 6/8
5 | CCCc1ccc(C(C)C)cc1O [Ex. 95, 5-Isopropyl-2-propyl-phenol] |  |  |  |  |  |  |  | 3/8 | 0/4 | 0/4 | 1/4 | 3/4 | animals protected/animals tested ([2]; 30 mg/kg, TPE 0.5 hrs): 0/4; Toxicity Ratio ([3]; Test 7-1 table, IP, 10 mg/kg, TPT 0.5 hrs): 1/8; Toxicity Ratio ([3]; Test 7-1 table, IP, 30 mg/kg, TPT 0.5 hrs): 0/8; animals protected/animals tested ([5]; 10 mg/kg, TPE 0.5 hrs): 3/4
6 | Cc1cc(Br)c(C(C)C)cc1O [Ex. 9, 4-bromo-5-isopropyl-2-methyl phenol] | 0/4 |  | 3/4 | 19 mg/kg | 1/4 | 0/8 |  |  |  |  |  |  | Toxicity Ratio ([3]; Test 7-1 table, Oral, 100 mg/kg, TPT N/A): 0/4; TD50 at 6 hrs ([3]; mouse, in vivo, intraperitoneal, Test 7-2 table, TPT 6 hrs): 398 mg/kg; Average Seizure Score ([4]; 19 mg/kg): 3.75; Seizure Ratio ([4]; 19 mg/kg): 1/4; animals protected/animals tested [6]: 0/4
